In this test the test system is mice with established Type II collagen arthritis. Put plainly: Male DBA/1J mouse established Type II collagen arthritis. It is filed as in vivo. On the procedure: Male DBA/1J mice (7-9 weeks old on arrival; at least 7 weeks old at time of first immunization) were housed 5 per cage and were acclimated for enough days after arrival such that all animals were at least 7 weeks old at start of study.
Mice were anesthetized with Isoflurane and given intradermal collagen (2 mg/ml) injections at the base of the tail in a volume of 150 μl (D0 and D21). On days 21-35, onset of arthritis occurred and mice were randomized into treatment groups. Randomization into each group was done after swelling was obviously established in at least one paw, and attempts were made to assure approximately equal mean scores across the groups at time of enrollment. Treatment was initiated after enrollment and continued every day for a total of 10 days as outlined in Table 3. During the ten days of treatment, clinical scores were given for each of the paws (right front, left front, right rear, and left rear) according to the scoring methods provided below. […]
• 0 Normal • 1 Minimal—small areas of resorption, not readily apparent on low magnification, rare osteoclasts in affected joints • 2 Mild—more numerous areas of resorption, not readily apparent on low magnification, osteoclasts more numerous in affected joints • 3 Moderate—obvious resorption of medullary trabecular and cortical bone without full thickness defects in cortex, loss of some medullary trabeculae, lesion apparent on low magnification, osteoclasts more numerous in affected joints • 4 Marked—Full thickness defects in cortical bone, often with distortion of profile of remaining cortical surface, marked loss of medullary bone, numerous osteoclasts, affects most joints • Severe—Full thickness defects in cortical bone and destruction of joint architecture of all joints
Histologic parameters (mean±SE) for each group were analyzed for differences using the Chi Square Test and one way ANOVA. […]

In the case of `CC[C@@H](O)/C=C/C=C\C[C@@H](O)/C=C/C=C/C=C\[C@@H](O)CCCC(=O)O` [Compound X], the “clinical symptoms of arthritis (clinical scoring in the paws)” value (once daily i.v. at both 0.5 and 5.0 μg/kg, vs arthritic control) is “inhibited”. Moreover, the “pannus formation and bone loss (histologic scoring)” value (once daily i.v. at both 0.5 and 5.0 μg/kg, vs vehicle control) is on record as “reduced”. The “score of bone damage (histologic scoring in joints)” value (twice daily 5 μg/kg i.v., vs vehicle control) is on record as “significant decrease”.

The values above are taken from patent publication US20090137527A1, “Compositions and methods for modulating immune function” (Resolvyx Pharmaceuticals, Inc., priority 2007, published 2009).
